Experimental data as given in US20070166777A1, “Methods for detecting lp-pla2 activity and inhibition of lp-pla2 activity” (priority 2004, published 2007).

Assay: Pharmacokinetics in clinical studies, plasma level
Conditions: human subjects, administered in vivo in clinical studies

peak plasma level: 90 ng/mL
Structure (SMILES): CCN(CC)CCN(Cc1ccc(-c2ccc(C(F)(F)F)cc2)cc1)C(=O)Cn1c(SCc2ccc(F)cc2)nc(=O)c2c1CCC2 [Formula II, -(N-(2-(Diethylamino)ethyl)-N-(4-(4-trifluoromethylphenyl)benzyl)-aminocarbonylmethyl)-2-(4-fluorobenzyl)thio-5,6-trimethylenepyrimidin-4-one bitartrate]
